The target in this assay is Subtilisin-like protease 1 (Plasmodium vivax). Briefly: Inhibition of Plasmodium vivax SUB1 catalytic domain.

One may read the IC50 as the concentration at which inhibition is half-maximal. Lower therefore signals inhibition by little substance.

Numbered stars: 1 amine (or outer) side, 2 acyl side, 3 side chain; on linkers, the order of the positions; unused ones are H or OH. Square brackets hold non-standard residues; d marks the D form. Peptide text beside a SMILES is read from it. * marks the point of attachment. Ala(1H-tetrazol-5-yl) = N[C@@H](Cc1nnn[nH]1)C(=O)O; Gly(cPent) = N[C@H](C(=O)O)C1CCCC1; X1 = C[C@H](N[*:1])C(=O)C(=O)[*:2]; Chg = N[C@H](C(=O)O)C1CCCCC1; OAll = C=CCO*

The compound `C=CCOC(=O)CC[C@H](NC(=O)[C@H](CC(=O)O)NC(=O)C(=O)[C@H](C)NC(=O)[C@H](C)NC(=O)[C@@H](NC(=O)[C@@H](NC(C)=O)C1CCCCC1)[C@@H](C)O)C(N)=O` (Ac-[Chg]TA[X1]DE(OAll)-NH2) came in with an IC50 of 150 nM.
With `C=CCOC(=O)CC[C@H](NC(=O)[C@H](CC(=O)O)NC(=O)C(=O)[C@H](C)NC(=O)[C@H](C)NC(=O)[C@@H](NC(=O)[C@@H](NC(C)=O)[C@@H](C)CC)[C@@H](C)O)C(N)=O` (Ac-ITA[X1]DE(OAll)-NH2), the midpoint of inhibition, the IC50, lay at 100 nM.
Regarding `CC(=O)N[C@H](C(=O)N[C@H](C(=O)N[C@@H](C)C(=O)N[C@@H](C)C(=O)C(=O)N[C@@H](CC(=O)O)C(N)=O)[C@@H](C)O)C1CCCC1` (Ac-[Gly(cPent)]TA[X1]D-NH2), the midpoint of inhibition, the IC50, lay at 150 nM.
In turn, `C=CCOC(=O)CC[C@H](NC(=O)[C@H](Cc1nnn[nH]1)NC(=O)C(=O)[C@H](C)NC(=O)[C@H](C)NC(=O)[C@@H](NC(=O)[C@@H](NC(C)=O)[C@@H](C)CC)[C@@H](C)O)C(N)=O` (Ac-ITA[X1][Ala(1H-tetrazol-5-yl)]E(OAll)-NH2) returned an IC50 of 2220 nM.
The figure for `C=CCOC(=O)CC[C@H](NC(=O)[C@H](CC(=O)O)NC(=O)C(=O)[C@H](C)NC(=O)[C@H](C)NC(=O)[C@@H](NC(=O)[C@@H](NC(C)=O)C1CCCC1)[C@@H](C)O)C(N)=O` is 70 nM.

Source of the values: BindingDB's records for PubMed 38503166 (University of Paris).
